Assays:
Assay type in all cases: biochemical
[1] = system: Trypsin; assay: HPLC-PDA-MS-bioassay, trypsin inhibition
Experimental: (§1) An aliquot of sample was injected onto C18 reversed-phase column with flow rate of 1 mL/min. Mass spectra were recorded from 150 to 1000 amu in both positive and negative modes using electrospray ionization. A splitter was attached immediately after the HPLC column so that a fraction of the eluent was directed towards the electrospray source. The remaining fraction was collected in deep-well plates. The plates were dried overnight and biassayed.

[2] = molecular target: T1, Thrombin (Homo sapiens, UniProt P00734); assay: HPLC-PDA-MS-bioassay, thrombin inhibition
T1 construct: Xa with factor Va converts prothrombin (II) to thrombin (IIa)
Experimental: as §1

[3] = molecular target: Xa (Homo sapiens, UniProt P00742); assay: HPLC-PDA-MS-bioassay, factor Xa inhibition
Experimental: as §1

[4] = molecular target: T2, TF/VIIa (Homo sapiens, UniProt P08709); assay: Factor VIIa/TF inhibitory assay (chromogenic substrate, OD 405 nm); conditions: recombinant human factor VIIa with recombinant soluble tissue factor
T2 construct: recombinant human factor VIIa
Experimental: To determine inhibitory activity, the compound having structure (1) was combined with recombinant human factor VIIa in black clear bottom well plates followed by a 10 minute room temperature incubation. Recombinant soluble tissue factor was then added followed by a 15 minute room temperature incubation. Finally, chromozymen tPA substrate was added and the plates were immediately read at 405 nm to determine background absorbance. After incubation, the rate of hydrolysis of the substrate was measured by monitoring the reaction at 405 nm for the release of p-nitroaniline. Percent inhibition of TF/VIIa activity was calculated from OD 405 nm value from the experimental and control sample. All hits 50% of control and less were confirmed and requested for IC50 values.
as §1

Chain of Xa (P00742 41-179 limits assumed): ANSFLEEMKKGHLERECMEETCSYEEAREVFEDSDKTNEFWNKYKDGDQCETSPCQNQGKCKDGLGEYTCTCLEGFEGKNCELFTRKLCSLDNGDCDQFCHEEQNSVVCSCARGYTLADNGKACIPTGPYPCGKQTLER
Chain of Xa (P00742 235-488 limits assumed): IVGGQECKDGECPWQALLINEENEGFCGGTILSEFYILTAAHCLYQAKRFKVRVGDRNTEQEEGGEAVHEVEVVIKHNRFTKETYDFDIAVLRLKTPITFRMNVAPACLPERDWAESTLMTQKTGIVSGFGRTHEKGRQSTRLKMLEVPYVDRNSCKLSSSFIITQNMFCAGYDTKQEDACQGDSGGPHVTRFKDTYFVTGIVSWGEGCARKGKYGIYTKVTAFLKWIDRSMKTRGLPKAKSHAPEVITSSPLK
T2 sequence (P08709 61-212 limits assumed): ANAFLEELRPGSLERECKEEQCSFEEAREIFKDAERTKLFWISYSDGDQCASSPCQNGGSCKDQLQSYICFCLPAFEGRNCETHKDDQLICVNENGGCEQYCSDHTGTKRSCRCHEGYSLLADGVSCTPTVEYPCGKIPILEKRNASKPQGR
T2 sequence (P08709 213-466 limits assumed): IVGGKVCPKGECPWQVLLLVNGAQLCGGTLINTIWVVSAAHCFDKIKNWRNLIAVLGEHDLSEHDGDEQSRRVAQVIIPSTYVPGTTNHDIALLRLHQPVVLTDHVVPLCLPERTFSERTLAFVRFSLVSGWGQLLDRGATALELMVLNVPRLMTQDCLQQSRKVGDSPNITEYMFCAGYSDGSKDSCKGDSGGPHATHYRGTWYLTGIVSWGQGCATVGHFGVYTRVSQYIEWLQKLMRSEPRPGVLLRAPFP
T2 sequence (P13726 33-251 partner limits assumed): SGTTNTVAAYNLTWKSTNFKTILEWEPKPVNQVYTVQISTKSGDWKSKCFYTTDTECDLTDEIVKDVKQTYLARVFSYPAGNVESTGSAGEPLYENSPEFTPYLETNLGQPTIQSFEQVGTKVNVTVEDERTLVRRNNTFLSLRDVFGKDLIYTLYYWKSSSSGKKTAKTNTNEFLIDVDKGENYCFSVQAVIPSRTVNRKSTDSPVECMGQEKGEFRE

COC(COS(=O)(=O)O)C(=O)NC(C(=O)N1C(C(=O)NCCC2=CCN(C(=N)N)C2)CC2CC(O)C(O)CC21)C(Cl)C(C)C (stereo not shown) [Structure 1]
IC50 [1]: 37 nM | IC50 [2]: 4 nM | IC50 [3]: 200 nM | IC50 [4]: 9 nM
